Blank lines part the entries; values can stand above or below the compound they belong to.
Columns and labels:
mice = settings: cited from earlier work
Sprague–Dawley rats = assay: Arterial blood pressure in anesthetized rats; settings: 55 nmol/kg i.v.
CHO-hNTSR1 cells = assay: Electric cell-substrate impedance sensing; format: cell-based, Chinese hamster; settings: 10 μmol/L; for maximum change factor (normalized resistance): 4000 Hz, n = 3 in duplicate
NTSR1 (β-arrestin 1) = NTSR1 (β-arrestin 1) (Homo sapiens, UniProt P30989); assay: BRET^2 βarr recruitment, allosteric modulator assay; format: cell-based; settings: pre-treatment up to 100 μmol/L
NTSR1 (β-arrestin 1), sequence (P30989 whole entry): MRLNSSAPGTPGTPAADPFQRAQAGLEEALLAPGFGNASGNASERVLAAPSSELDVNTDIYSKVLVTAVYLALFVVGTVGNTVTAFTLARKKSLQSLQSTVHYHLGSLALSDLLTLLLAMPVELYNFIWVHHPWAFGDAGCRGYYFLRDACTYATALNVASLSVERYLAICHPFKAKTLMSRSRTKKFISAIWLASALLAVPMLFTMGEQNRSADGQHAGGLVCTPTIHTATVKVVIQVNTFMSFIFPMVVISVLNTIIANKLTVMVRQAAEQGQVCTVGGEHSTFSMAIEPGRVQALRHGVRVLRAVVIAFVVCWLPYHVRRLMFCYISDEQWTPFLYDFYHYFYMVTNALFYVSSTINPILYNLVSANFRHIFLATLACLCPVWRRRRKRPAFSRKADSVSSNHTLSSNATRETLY

hNTSR1 (Gα13) = hNTSR1 (Gα13) (Homo sapiens, UniProt P30989); assay: BRET^2 G protein dissociation, allosteric modulator assay; format: cell-based; settings: pre-treatment up to 100 μmol/L
hNTSR1 (Gα13), sequence (P30989 whole entry): as above

NTSR1 (β-arrestin 2) = NTSR1 (β-arrestin 2) (Homo sapiens, UniProt P30989); assay: BRET^2 βarr recruitment, allosteric modulator assay; format: cell-based; settings: pre-treatment up to 100 μmol/L
NTSR1 (β-arrestin 2), sequence (P30989 whole entry): as above

318 distinct 7TMRs = assay: PRESTO-Tango GPCRome panel; format: cell-based, human; settings: 10 μmol/L
rats = settings: chronic neuropathic and inflammatory pain paradigms; cited from earlier work
[1] = anesthetized male rats, mean ± SEM, n = 5
[2] = anesthetized male rats, mean ± SEM

SMILES: COc1ccccc1C1CCN(c2nc(C3(F)CC3)nc3ccc(N(C)CCO)cc23)CC1 [SBI-553]
hypotension (mice): does not induce hypotension in mice

SMILES: CCCCCCCCCCCCCCCC(=O)N[C@@H](C)C(=O)N[C@@H](C)C(=O)N[C@@H](CCCCN)C(=O)N[C@@H](CCCCN)C(=O)N[C@@H](CO)C(=O)N[C@@H](CC(C)C)C(=O)N[C@@H](CCC(N)=O)C(=O)N[C@@H](CO)C(=O)N[C@@H](CC(C)C)C(=O)N[C@@H](CCC(N)=O)C(=O)N[C@@H](CO)C(=O)N[C@H](C(=O)N[C@H](C(=O)N[C@@H](Cc1c[nH]cn1)C(N)=O)C(C)C)[C@@H](C)O [[Ala^2]PP-001]
change to MABP (Sprague–Dawley rats; n = 5): no change to MABP was observed | resistance response profile (CHO-hNTSR1 cells): completely inactive

SMILES: CC[C@H](C)[C@H](NC(=O)[C@H](Cc1ccc(O)cc1)NC(=O)[C@@H]1CCCN1C(=O)[C@H](CCCNC(=N)N)NC(=O)[C@@H](N)CCCNC(=N)N)C(=O)N[C@@H](CC(C)C)C(=O)O [NT(8-13), Neurotensin (8-13), reference compound]
ΔMABP 20 s post-injection (Sprague–Dawley rats; [1]): −29 ± 3 mm Hg | ΔMABP 75 s post-injection (Sprague–Dawley rats; [1]): −7 ± 3 mm Hg | ΔMABP 200 s post-injection (Sprague–Dawley rats; [1]): −28 ± 6 mm Hg

effect on potency or efficacy of NT, βarr1 (NTSR1 (β-arrestin 1)): not affected | effect on potency or efficacy of NT, Gα13 (hNTSR1 (Gα13)): not affected | effect on potency or efficacy of NT, βarr2 (NTSR1 (β-arrestin 2)): not affected
SMILES: CCCCCCCCCCCCCCCC(=O)O [Palmitate, palmitate]

SMILES: CCCCCCCCCCCCCCCC(=O)N[C@@H](C)C(=O)N[C@@H](CCCNC(=N)N)C(=O)N[C@@H](CCCCN)C(=O)N[C@@H](CCCCN)C(=O)N[C@@H](CO)C(=O)N[C@@H](CC(C)C)C(=O)N[C@@H](CCC(N)=O)C(=O)N[C@@H](CO)C(=O)N[C@@H](CC(C)C)C(=O)N[C@@H](CCC(N)=O)C(=O)N[C@@H](CO)C(=O)N[C@H](C(=O)N[C@H](C(=O)N[C@@H](Cc1c[nH]cn1)C(N)=O)C(C)C)[C@@H](C)O [PP-001]
βarr2 recruitment across a panel of 318 distinct 7TMRs (318 distinct 7TMRs): did not induce βarr2 recruitment | delay in hypotensive response (Sprague–Dawley rats): 40 s | time of minimum ΔMABP post-injection (Sprague–Dawley rats): 105 s | minimum ΔMABP of first decline (Sprague–Dawley rats; [2]): −37 ± 4 mm Hg | ΔMABP 300 s post-injection (Sprague–Dawley rats; [2]): −25 ± 3 mm Hg | baseline-to-baseline timeframe (CHO-hNTSR1 cells): 45 min | time of maximum change factor post-stimulation (CHO-hNTSR1 cells): 1110 s | maximum change factor (normalized resistance) (CHO-hNTSR1 cells; mean ± SEM): 1.06 ± 0.01 | time at which the trace intercepts / returns to baseline (CHO-hNTSR1 cells; post-stimulation): 2700 s | reversing nociceptive behaviors (rats): effective in reversing nociceptive behaviors in rats

SMILES: CCCCCCCCCCCCCCCC(=O)N[C@@H](C)C(=O)N[C@@H](CCCNC(=N)N)C(=O)N[C@@H](CCCCN)C(=O)N[C@@H](CCCCN)C(=O)N[C@@H](CO)C(=O)N[C@@H](CC(C)C)C(=O)N[C@@H](CCC(N)=O)C(=O)N[C@@H](CO)C(=O)N[C@@H](CC(C)C)C(=O)N[C@@H](CCC(N)=O)C(=O)N[C@@H](CO)C(=O)N[C@H](C(=O)N[C@@H](C)C(=O)N[C@@H](Cc1c[nH]cn1)C(N)=O)[C@@H](C)O [[Ala^13]PP-001]
delay in hypotensive response (Sprague–Dawley rats): 40 s | time of minimum ΔMABP post-injection (Sprague–Dawley rats): 93 s | ΔMABP lower than that of PP-001 at 300 s (Sprague–Dawley rats): 19 ± 5 mm Hg | minimum ΔMABP of first decline (Sprague–Dawley rats; [2]): −36 ± 4 mm Hg | ΔMABP 300 s post-injection (Sprague–Dawley rats; [2]): −44 ± 2 mm Hg | ΔMABP 140 s post-administration (Sprague–Dawley rats; n = 5): −31 ± 4 mm Hg | time of maximum change factor post-stimulation (CHO-hNTSR1 cells): 1962 s | maximum change factor (normalized resistance) (CHO-hNTSR1 cells; mean ± SEM): 1.06 ± 0.02 | change factor at 3000 s (50 min) post-stimulation (CHO-hNTSR1 cells; mean ± SEM, n = 3): 1.05 ± 0.03

— PMC13104648 (Acta Pharmaceutica Sinica. B, 2025)
